Entries after “also recorded” stand apart in the source; their conditions may differ.
How the values were obtained:
Assay type in all cases: in vivo, rat
[1] = Urinary protein excretion in angiotensin II infused, captopril treated stroke prone spontaneously hypertensive rats; conditions: captopril treated stroke prone spontaneously hypertensive rats (FIG. 35)
[2] = Assay A: angiotensin II infusion model, urinary Na+/K+ ratio (natriuresis index); conditions: Wistar rats, 1% NaCl, angiotensin II 25 ng/min sc; eplerenone 100 mpk
Source text: Electrolyte excretion. The ratio between daily urinary Na^+ excretion and urinary K^+ excretion (U Na^+/K^+ ratio) was used as an index for natriuresis. Urinary Na^+/K^+ ratio was similar in all groups before the start of the treatments, and increased similarly in all animals upon initiation of the high salt diet.

[3] = Histopathological scores for renal injury in angiotensin II infused, captopril treated stroke prone spontaneously hypertensive rats; conditions: captopril treated stroke prone spontaneously hypertensive rats (FIG. 36)
[4] = Survival and cerebral injury in stroke-prone spontaneously hypertensive rats
osteopontin [5] = test: Assay B: serum osteopontin levels at 28 days; conditions: NaCl 1% drinking rats with aldosterone and eplerenone
osteopontin [6] = test: Assay B: osteopontin mRNA by quantitative RT-PCR (Taqman); conditions: aldosterone/salt-treated rats receiving vehicle
Procedure: (§1) Assay B: In Vivo Aldosterone Infusion Model Determination of osteopontin and COX-2 was performed by quantitative RT-PCR (Taqman). Osteopontin was also identified in the heart by immunohistochemistry.

[7] = test system: Transforming growth factor beta 1 (TGFβ1); test: Assay C: TGFβ1 mRNA, TaqMan; conditions: aldosterone+salt, 7, 14, 30 days
Procedure: The procedure of Assay B was expanded upon in a further study. […] Myocardial tissue from animals in each treatment group was examined after 7, 14, or 30 days of treatment.
Potassium chloride supplementation was added to the saline solution in order to prevent the potential hypokalemia associated with aldosterone excess.
Treatment At the time of the surgery, an Alzet 2002 osmotic minipump (Alza Corp., Palo Alto, Calif.) containing either vehicle (9% ethanol/87% propylene glycol/4% dH2O) or 1.0 mg/mL d-aldosterone (Sigma Chemical, St. Louis, Mo.) was inserted subcutaneously at the nape of the neck. Aldosterone was administered at a dose of 0.75 µg/hour. […]
The fluorogenic 5′-nuclease assay (TaqMan PCR) using Applied Biosystems' 7700 Sequence Detection System (Applied Biosystems, Foster City, Calif.) allowed for real time detection/quantitation of a specific gene by monitoring the increase in fluorescence of a gene-specific, dye-labeled oligonucleotide probe. […] When the probe was annealed to the target gene, fluorescence of 6FAM was prevented by the close proximity of TAMRA. The exonuclease activity of Taq polymerase released the dyes from the oligonucleotide probe by displacing the probe from the target sequence resulting in fluorescence excitation in direct proportion to the amount of target message present. […]

COX-2 = test: Assay B: COX-2 mRNA by quantitative RT-PCR (Taqman)
Procedure: as §1

[8] = Assay B: interstitial collagen volume fraction and hydroxyproline concentration (myocardial fibrosis); conditions: aldosterone/salt-treated uni-nephrectomized Sprague Dawley rats, 4 weeks
Procedure: Assay B: In Vivo Aldosterone Infusion Model Hearts were stained with hematoxylin&eosin and the collagen specific dye picro-sirius red and were analyzed for determination of interstitial collagen volume fraction and morphologic abnormalities (i.e. necrosis, vascular injury). Hydroxyproline concentration was measured in the frozen hearts.

| Structure (SMILES) | Urinary protein excretion [1] | Urinary Na+/K+ ratio (index for natriuresis) [2] | Histopathological scores for renal injury [3] | Survival ([4]; stroke-prone spontaneously hypertensive rats (FIG. 37)) | Cerebral injury ([4]; stroke-prone spontaneously hypertensive rats (FIGS. 37, 38)) | Circulating (serum) osteopontin levels (osteopontin [5]) | Upregulation of osteopontin mRNA vs control (osteopontin [6]) | TGF-β mRNA levels [7] | Increase of COX-2 mRNA expression vs control (COX-2; aldosterone/salt+vehicle treatment) | COX-2 relative mRNA expression in the heart (COX-2; aldosterone/salt-treated rats, 4 weeks, vehicle or eplerenone 100 mpk p.o, control 1.2±0.12) | Myocardial fibrosis (interstitial collagen volume fraction, hydroxyproline concentration) [8] |
| --- | --- | --- | --- | --- | --- | --- | --- | --- | --- | --- | --- |
| COC(=O)[C@@H]1CC2=CC(=O)CC[C@]2(C)[C@@]23O[C@@H]2C[C@@]2(C)[C@@H](CC[C@@]24CCC(=O)O4)[C@H]13 [eplerenone] | inhibition of increased urinary protein excretion | did not produce a significant diuretic or natriuretic effect | reduction in histopathological scores for renal injury | increased survival | reduced cerebral injury; also recorded: decrease in cerebral injury | marked decrease in circulating osteopontin levels |  |  |  |  |  |
| C[C@]12CCC(=O)C=C1CC[C@@H]1[C@@H]2[C@@H](O)C[C@]2(C=O)[C@@H](C(=O)CO)CC[C@@H]12 [aldosterone] |  |  |  |  |  |  | 7 fold | not upregulated at any of the time points examined | 3 fold | 3.7±0.46 | absence of myocardial fibrosis |

Reference: patent publication US20040037806A1, “Aldosterone blocker therapy to prevent or treat inflammation-related disorders” (Pharmacia Corporation, priority 2002, published 2004)
